Data on 2 compounds can be found in patent US7595395B2, “Gabaergic agents to treat memory deficits” (priority 2005, dated 2009).

The subject of data set [1] is αxβ3γ2 (α = 1-6) BzR/GABA(A) subtypes. Nature of the data set: Binding across the BzR/GABA(A) subtypes (subtype selectivity in words). Also noted: species or system human and rat. As to the method:
The binding affinity of XLi093 (8) in vitro was determined on α1-6β3γ2 LTK cells and is illustrated in the Scheme as shown in FIG. 2
The affinity of all ligands at the 6 major recombinant GABAA/BzR subtypes was measured by competition for [^3H]Ro15-1788 binding to HEK-T cells expressing both human and rat GABAA/Bz receptors of composition α1β2γ2 (α1), α2β2γ2 (α2), α3β2γ2 (α3), α4β2γ2 (α4), α5β2γ2 (α5) and α6β2γ2 (α6). It is well known that the β2 and β3 subunits can be interchanged with no effect on Bz ligand affinity or efficacy. […] These studies are similar to those performed in the laboratory of Bryan Roth who has already expressed the receptors employing the work of Kucken et. al. and Gray et. al.
In brief, for membrane preparations, the cells were scraped on to the ice and diluted into 5 mL of phosphate buffered saline (pH=7.40) and cells pelleted by centrifugation for 5 min. at 4° C. The pellet was resuspended in 1 mL of 50 mM Tris-acetate buffer (pH 7.4) and centrifuged at 18,000 g for 20 min. […] The membranes were harvested in polyethyleneimine-pretreated Whatman GF/C filters and after drying and addition of scintillation cocktail, counted in a scintillation counter. […]

Data set [2] deals with C57B1/6 mice. Nature of the data set: Spontaneous locomotive activity. Format: in vivo. The conditions noted are these: 30 mg/kg. The text has this: (§1) Further, animal data for FIGS. 22-26 were obtained using experimental methodologies described in a previously published reference, Influence of benzodiazepine binding site ligands on fear-conditioned contextual memory European journal of Pharmacology, Volume 426, Issues 1-2, 24 Aug. 2001, Pages 45-54, Timothy M. DeLorey, Richard C. Lin, Brian McBrady, Xiaohui He, James M. Cook, Jelveh Lameh and Gilda H. Loew, which is incorporated by reference as if fully set forth here in its entirety. Selected sections of the reference are provided below:
(§2) Male C57B1/6 mice were obtained from Charles Rivers Laboratories (Holister, Calif.) at 6 weeks of age. […] All animal protocols used in this study conform to the guidelines determined by the National Institute of Health (USA) Office for Protection from Research Risks and are approved by the Animal Care and Use Committee of the Palo Alto Veterans Administration Medical Center, Palo, Alto, Calif. […]
Mice were allowed to acclimate to the test room for 30 min prior to drug injection. […] Spontaneous locomotor activity was measured via seven sets of photoelectric sensors evenly spaced along the length of the monitoring chamber, 4 cm above the floor of the chamber (San Diego Instruments, San Diego, Calif.). Total activity was recorded in arbitrary units reflective of the number of times a mouse interrupts the photoelectric sensors during a 10-min monitoring session. […]

The test system of data set [3] is C57B1/6 mice. Nature of the data set: Audio cued fear conditioning. Format: in vivo. The settings on record: scopolamine impairment.
Excerpt: as §1, §2
Before testing each day, the mice were moved to a holding room and allowed to acclimate for at least 30 min. […] Twenty-four hours later, contextual memory was assessed by placing the mice back into the freshly rescented (0.3% Ammonium hydroxide) conditioning chambers in which they were trained, for a 4-min test period in the absence of footshock. […] Data were analyzed by one-way analysis of variance(ANOVA) using GraphPad PRISM 2.01 (GraphPad Software). […]

As to `CCOC(=O)c1ncn2c1CN=C(c1ccccc1)c1cc(-c3ccccc3)ccc1-2` [DM-I-81, Ethyl 8-phenyl-6-phenyl-4H-benzo[f]imidazo[1,5-a][1,4]diazepine-3-carboxylate], the “affinity at other BzR/GABA(A) subtypes than α5 (in words)” value in data set [1] was “binds only to α5β3γ2 subtypes”.

For the compound `CCc1ccc2c(c1)C(=O)N(C)Cc1c(C(=O)OCCCOC(=O)c3ncn4c3CN(C)C(=O)c3cc(CC)ccc3-4)ncn1-2` [XLi356, 1,3-Bis(8-ethyl-5,6-dihydro-5-methyl-6-oxo-4H-imidazo[1,5a][1,4]benzodiazepine-3-carboxy)propyl diester], the “locomotion (in words)” value in the data set on C57B1/6 mice [2] is listed as “reduced”. Further, the “audio cued memory / audio cued fear conditioning (in words)” value was “not able to reverse this type of memory” in the data set with C57B1/6 mice [3] (listed as XLI356) and “no activity” in the data set with C57B1/6 mice [3] (listed as Xli356).
